Assay results taken from US8497260B2, “2-arylbenzothiophene derivatives or pharmaceutically acceptable salts thereof, preparation method thereof, and pharmaceutical composition for the diagnosis or treatment of degenerative brain disease containing the same as active ingredient” (Industry-University Cooperation Foundation Sogang University, priority 2009, dated 2013).

Assays:
β-amyloid deposits = settings: values from cited documents; read-out: binding affinity (Ki); cited from earlier work
[1] = molecular target: T1, β-amyloid (Aβ1-42) fibrils (Homo sapiens, UniProt P05067); assay: Inhibitory binding assay against [125I]TZDM on β-amyloid (Aβ1-42) fibrils; settings: Aβ1-42 fibrils 10 nM, [125I]TZDM 0.05 nM, 10% ethanol, room temperature 3 hours, nonspecific binding with 2 μM ThT; read-out: Ki, relative binding affinity to [125I]TZDM (112)
T1 construct: β-Amyloid peptide (Aβ1-42, 1 mg, Bachem); purchased Bachem
T1 sequence (P05067 672-713 limits assumed): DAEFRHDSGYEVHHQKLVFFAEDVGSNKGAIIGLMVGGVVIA
Procedure: (§1) β-Amyloid peptide (Aβ1-42, 1 mg, Bachem) was completely dissolved in 1 mL of DMSO, 9 mL of phosphate buffered saline (PBS) (pH 7.4) was added thereto and well mixed. The resulting mixture was incubated at 37° C. for 60 minutes to form β-amyloid fibrils, 0.5 mL was taken and transferred to each e-tube and placed into a refrigerator maintained at −80° C.
To determine whether β-amyloid peptide was properly formed into β-amyloid fibrils, 150 μL of 5 μM Thioflavin T (ThT) was added to 50 μL of incubated β-amyloid fibrils, the fluorescence intensity of ThT binding specifically to β-amyloid fibrils at excitation/emission wavelengths (λex/λem), e.g., 450 nm/480 nm, was detected using a spectrometer.
0.850 mL of 10% Ethanol was placed into 12 mm×75 mm borosilicate test tubes, and 50 μL of β-amyloid (Aβ1-42) fibrils were added such that the final reaction concentration became 10 nM. […] Here, the nonspecific binding was performed using 2 μM Thioflavin T (ThT).

[2] = molecular target: T1, β-amyloid (Aβ1-42) fibrils; assay: Dissociation constant (Kd) of [125I]TZDM on β-amyloid fibrils; settings: Aβ1-42 fibrils 10 nM, 10% ethanol, room temperature 3 hours, nonspecific binding with 2 μM ThT
Procedure: as §1
Here, the nonspecific binding was performed using 2 μM Thioflavin T (ThT).

For `[11CH3]Nc1ccc(-c2nc3ccc(O)cc3s2)cc1` [Control Group], the Ki (β-amyloid deposits) is given as 2.8 nM.

For `O=[N+]([O-])c1ccc(-c2cc3ccc(O)cc3s2)cc1` [Example 4, 2-(4-nitrophenyl)-6-hydroxybenzothiophene], the Ki [1] was 1.07 nM and the melting point was 265 to 265.2 °C.

Compound `Nc1ccc(-c2cc3ccc(OCCCF)cc3s2)cc1` [Example 10, 2-(4-aminophenyl)-6-(3-fluoropropoxy)benzothiophene] has a Ki [1] of 0.64 nM and a melting point of 119.6 to 123.2 °C.

For `CNc1ccc(-c2cc3ccc(OCCF)cc3s2)cc1` [Example 12, 2-[4-(N-monomethylamino)phenyl]-6-(2-fluoroethoxy)benzothiophene], the Ki [1] was 0.064 nM and the melting point was 156.9 to 159.7 °C.

With `CNc1ccc(-c2cc3ccc(OCCCF)cc3s2)cc1` [Example 13, 2-[4-(N-monomethylamino)phenyl]-6-(3-fluoropropoxy)benzothiophene] the Ki [1] was 0.27 nM and the melting point was 121.4 to 123.1 °C.

For `CN(C)c1ccc(-c2cc3ccc(OCCF)cc3s2)cc1` [Example 16, 2-[4-(N,N-dimethylamino)phenyl]-6-(2-fluoroethoxy)benzothiophene], the Ki [1] was 0.079 nM and the melting point was 183.9 to 195.9 °C.

`CN(C)c1ccc(-c2cc3ccc(OCCCF)cc3s2)cc1` [Example 17, 2-[4-(N,N-dimethylamino)phenyl]-6-(3-fluoropropoxy)benzothiophene] showed a Ki [1] of 7.41 nM and a melting point of 177.7 to 183 °C.

In the case of `COc1ccc2cc(-c3ccnc(NCCF)n3)sc2c1` [Example 33, 2-[2-(N-(2-fluoroethyl)amino)pyrimidine-4-yl]-6-methoxybenzothiophene], the Ki [1] is reported as 0.53 nM.

In the case of `COc1nccc(-c2cc3ccc(OCCF)cc3s2)n1` [Example 34, 2-(2-methoxypyrimidine-4-yl)-6-(2-fluoroethoxy)benzothiophene], the Ki [1] is reported as 0.47 nM.

`CNc1nccc(-c2cc3ccc(OCCF)cc3s2)n1` [Example 35, 2-[2-(N-monomethylamino)pyrimidine-4-yl]-6-(2-fluoroethoxy)benzothiophene] showed a Ki [1] of 0.55 nM.

Compound `COc1nccc(-c2cc3ccc(OCCCF)cc3s2)n1` [Example 37, 2-(2-methoxypyrimidine-4-yl)-6-(3-fluoropropoxy)benzothiophene] has a Ki [1] of 0.44 nM.

In the case of `CNc1ccnc(-c2cc3ccc(OCCF)cc3s2)n1` [Example 41, 2-[4-(N-monomethylamino)pyrimidine-2-yl]-6-(2-fluoroethoxy)benzothiophene], the Ki [1] is reported as 0.53 nM.

With `CN(C)c1ccnc(-c2cc3ccc(OCCF)cc3s2)n1` [Example 42, 2-[4-(N,N-dimethylamino)pyrimidine-2-yl]-6-(2-fluoroethoxy)benzothiophene] the Ki [1] was 0.25 nM.

Work on `CNc1ccnc(-c2cc3ccc(OCCCF)cc3s2)n1` [Example 43, 2-[4-(N-monomethylamino)pyrimidine-2-yl]-6-(3-fluoropropoxy)benzothiophene] yielded a Ki [1] of 0.37 nM.

For `COc1ccc2cc(-c3ccc(OCCF)nn3)sc2c1` [Example 44, 2-[3-(2-fluoroethoxy)pyridazine-6-yl]-6-methoxybenzothiophene], the Ki [1] was 0.065 nM.

In the case of `COc1ccc2cc(-c3ccc(OCCCF)nn3)sc2c1` [Example 45, 2-[3-(3-fluoropropoxy)pyridazine-6-yl]-6-methoxybenzothiophene], the Ki [1] is reported as 1 nM.

`Nc1ccc(-c2cc3ccc(OCCF)cc3s2)nn1` [Example 47, 2-(3-aminopyridazine-6-yl)-6-(2-fluoroethoxy)benzothiophene] gave a Ki [1] of 0.44 nM.

In the case of `CNc1ccc(-c2cc3ccc(OCCF)cc3s2)nn1` [Example 48, 2-[3-(N-monomethylamino)pyridazine-6-yl]-6-(2-fluoroethoxy)benzothiophene], the Ki [1] is reported as 0.3 nM.

In the case of `CN(C)c1ccc(-c2cc3ccc(OCCF)cc3s2)nn1` [Example 49, 2-[3-(N,N-dimethylamino)pyridazine-6-yl]-6-(2-fluoroethoxy)benzothiophene], the Ki [1] is reported as 0.43 nM.

In the case of `COc1ccc(-c2cc3ccc(OCCCF)cc3s2)nn1` [Example 50, 2-(3-methoxypyridazine-6-yl)-6-(3-fluoropropoxy)benzothiophene], the Ki [1] is reported as 0.18 nM.

`Nc1ccc(-c2cc3ccc(OCCCF)cc3s2)nn1` [Example 51, 2-(3-aminopyridazine-6-yl)-6-(3-fluoropropoxy)benzothiophene] showed a Ki [1] of 0.38 nM.

`CNc1ccc(-c2cc3ccc(OCCCF)cc3s2)nn1` [Example 52, 2-[3-(N-monomethylamino)pyridazine-6-yl]-6-(3-fluoropropoxy)benzothiophene] showed a Ki [1] of 0.55 nM.

With `CN(C)c1ccc(-c2cc3ccc(OCCCF)cc3s2)nn1` [Example 53, 2-[3-(N,N-dimethylamino)pyridazine-6-yl]-6-(3-fluoropropoxy)benzothiophene] the Ki [1] was 0.65 nM.

Work on `COc1ccc2cc(-c3cncc(OCCCF)n3)sc2c1` [Example 55, 2-[2-(3-fluoropropoxy)pyrazine-6-yl]-6-methoxybenzothiophene] yielded a Ki [1] of 0.45 nM.

In the case of `CC(=C(C#N)C#N)c1ccc2cc(N(C)CCF)ccc2c1` [[^18F]FDDNP], the Ki (β-amyloid deposits) is listed as 0.12 nM.

In the case of `CN(C)c1ccc(-c2cn3cc(I)ccc3n2)cc1` [[^123I/^125I]IMPY], the Ki (β-amyloid deposits) is listed as 15 nM.

`CN(C)c1ccc(-c2nc3ccc([125I])cc3s2)cc1` [[^125I]TZDM, 2-[4-(N,N-dimethylamino)phenyl]-6-[^125I]iodobenzothiazole] showed a Kd [2] of 0.13 nM.
